# Test results from patent publication US5776957A, “Nornicotine enantiomers for use as a treatment for dopamine related conditions and disease states” (The University of Kentucky Research Foundation, priority 1996, dated 1998).
# Entries after “also recorded” stand apart in the source; their conditions may differ. Like-named read-outs stand apart in the source and are kept apart here.
# Legend:
# [1] = Locomotor activity assay, acute and repeated treatment, S(-) nicotine challenge, saline challenge; assay type: in vivo, rat; conditions: for behavioral sensitization after repeated administration: 8 injections once every 48 hrs, nicotine 1 mg/kg, R(+) 0.3-10 mg/kg; for cumulated locomotor activity after saline challenge: S(-) experiment; for cross-sensitization to S(-) nicotine: repeated S(-) nornicotine
# Method: (I mg/kg), norNIC (0.3-10 mg/kg) or R(+) norNIC (0.3-10 mg/kg) was administered peripherally (s.c., 8 injections once every 48 hrs) to groups of rats and locomotor activity was assessed for 50 min immediately after each injection.
# In the present study, S(-) nicotine (1 mg/kg), R(+) nornicotine (1-10 mg/kg), S(-) nornicotine (1-10 mg/kg), or vehicle (saline) were administered s.c. to groups of rats (n=6) acutely or repeatedly (8 injections once every 48 hrs). Locomotor activity was measured during 50 min sessions immediately following drug or vehicle administration.
# Male Sprague-Hawley rats (225-250 g) from Harlan Laboratories were housed two per cage with free access to food and water.
# Activity was recorded automatically in a wooden test-chamber measuring 30×28×43 cm high. The chamber had white walls and a wire mesh floor over pine chip bedding. Two photobeams located 4.5 cm above the floor divided the chamber into four equal quadrants. Electromechanical equipment located in an adjacent room recorded photobeam interruptions automatically. A white noise generator provided an ambient 70 dB background noise in the test room in order to minimize extraneous sounds that might influence the animal's behavior in the test chamber. Rats were habituated to the chamber for 50 min on each of three consecutive days.
# On the day immediately after the third habituation session, rats were randomly divided into groups (n=6/group) and were administered s.c. either S(-) nicotine (1 mg/kg), R(+) nornicotine (0.3, 1, 3 and 10 mg/kg), or vehicle (saline) to determine acute drug effects on locomotor activity. In a separate experiment, rats (n=6/group) were administered s.c. either S(-) nicotine (1 mg/kg), S(-) nornicotine (0.3, 1, 3 and 10 mg/kg), or vehicle (saline). To determine the effect of repeated drug administration on locomotor activity, drug or vehicle was administered respectively in the test-room once every 48 hrs for a total of 8 injections. After each injection, locomotor activity was recorded during a 50 min session (five 10-min blocks). On the ninth injection day (48 hrs following injection 8), each group of rats was administered a challenge dose (1 mg/kg) of S(-) nicotine in the test-room, and locomotor activity was determined immediately thereafter. On the tenth injection day, each group of rats was administered saline and locomotor activity recorded to determine potential conditioning effects of the repeated drug administration.
# Post hoc analysis of pairwise comparisons was performed with Duncan's New Multiple Range test.
# [2] = Amphetamine drug discrimination (substitution tests); assay type: in vivo, rat
# Method: Rats were trained in on two-lever food-reinforced operant tasks to discriminate amphetamine (1 mg/kg) from saline. After discrimination training stabilized, test doses of amphetamine (0.0625-2.0 mg/kg), nicotine (0.1-1.0 mg/kg) or nornicotine (1-10 mg/kg) were assessed for their ability to substitute for the amphetamine training dose during brief test sessions in which food reinforcement was withheld.
# Nine male Sprague-Hawley rats were obtained from Harlan Industries (Indianapolis, Ind.) and were caged individually with water continuously available. Food access was restricted in order to maintain body weights at approximately 80% of free-feeding weight. Prior to the start of the experiment, all rats received a single injection of amphetamine (1 mg.kg, IP) as part of an unrelated experiment. Apparatus Six operant chambers (ENV-001, Med Associates, St. Albans, Vt.) enclosed in a sound attenuating environment were used. Located in the bottom center of the front panel in each chamber was a 5×4.-cm opening to a recessed food tray. Two metal response levers were located on the front panel, one on each side of the food tray. The center of each lever was mounted 7.3 cm from the grid floor. A 28-Vcue light, 3 cm in diameter, was centered 6 cm above each lever. A personal computer, interfaced to the chamber with Med Associates equipment, controlled the experimental sessions and collected data.
# The general procedures utilized to establish amphetamine discrimination were similar to those outlined previously (13). Briefly, rats were first given access to food pellets (45 mg sucrose pellet, Noyes Co., Lancaster, N.H.) dispensed noncontingently into the food tray with both levers present. One lever was then removed and the rat was shaped to depress the other lever for food reinforcement. Following this, rats received 15-min daily sessions in which the lever (left or right) available for food reinforcement was alternated daily. […] The start of each session was signaled by the onset of both cue lights mounted above the levers, and the termination of each session was signaled by the offset of these lights. This training phase was continued until the rat earned 20 reinforces on an FR25 schedule for two days.
# Amphetamine discrimination training was conducted Monday through Friday. For this training, both levers were mounted in the chamber. Amphetamine (A; 1 mg/kg) or saline (S), was injected IP 15 min prior to the start of the session, with the order of injections being either AASS or SSAA. The left lever was designated as the amphetamine-correct lever for 4 rats, while the right lever was amphetamine -correct for 5 rats. On Monday, Wednesday and Friday, injection-appropriate responding was food-reinforcedon an FR25 schedule for the entire 15-min session. However, 2-min extinction periods were instituted at the beginning of sessions on Tuesday and Thursday (one amphetamine and one saline test per week) to assess the control of amphetamine (or saline) over responding. […] During the remaining 13 min of these sessions, contingent reinforcement for injection-appropriate responding was reinstated. This phase of training was continued until the rat completed the first FR25 on the correct lever for 10 consecutive sessions and also completed 80% or more responses on the injection-appropriate lever during 4 consecutive extinction periods.
# The substitution phase was identical to the previously described amphetamine discrimination phase, except for the Friday session, which was decreased to a 4-min extinction session with no food available.
# [3] = tested on: nicotinic receptor sites in the brain; assay: displacement of nicotine from nicotinic receptor sites in the brain; assay type: binding
# rat striatal slices = conditions: 0.1-100 μM, 15 min exposure, Dwoskin et al., 1993, cited from earlier work
# [4] = acute S(-) nornicotine 1 and 3 mg/kg
# [5] = repeated S(-) nornicotine 3 mg/kg
compound,measurement,setting,value
"c1cncc([C@@H]2CCCN2)c1 [S(-) nornicotine, S-(-) nornicotine]",behavioral sensitization after repeated administration,[1]; S(-) nornicotine 10 mg/kg,produces behavioral sensitization; also recorded: behavioral sensitization following repeated administration of the high dose of S(-) nornicotine was observed
same,behavioral sensitization after repeated administration,"[1]; S(-) nornicotine 10 mg/kg, listed as S-(-)- norNIC",produces behavioral sensitization
same,conditioned response to repeated administration (saline challenge),[1]; 48 hrs after S(-) nicotine challenge,did not contribute to the observed behavioral sensitization
same,cumulated locomotor activity after saline challenge,[1]; 0.3 mg/kg,352 ± 17 number of photobeam interruptions/50 min session
same,cumulated locomotor activity after saline challenge,[1]; 1.0 mg/kg,333 ± 38 number of photobeam interruptions/50 min session
same,cumulated locomotor activity after saline challenge,[1]; 3.0 mg/kg,394 ± 50 number of photobeam interruptions/50 min session
same,cumulated locomotor activity after saline challenge,[1]; 10 mg/kg,459 ± 26 number of photobeam interruptions/50 min session
same,locomotor activity after the seventh injection,"[1]; S(-) nornicotine 10 mg/kg, repeated",364±32 photobeam interruptions
same,cumulated locomotor activity vs saline-control,[1]; acute S(-) nornicotine 0.3 mg/kg,significantly increased
same,locomotor activity time course,"[1]; acute S(-) nornicotine 0.3 mg/kg, first 20 min",significant increase in activity
same,cumulated locomotor activity vs saline-control,[1]; acute S(-) nornicotine 10 mg/kg,significant decrease in activity
same,locomotor activity time course,"[1]; acute S(-) nornicotine 10 mg/kg, first 10 min",decreased during the first 10 min of the session
same,cumulated locomotor activity vs saline-control,[1]; [4],not different from the saline-control group
same,locomotor activity time course,[1]; [4],not different from the saline-control group
same,cumulated locomotor activity vs saline-control,"[1]; acute, 0.3 and 10 mg/kg, R(+) experiment",significant decrease in locomotor activity
same,cumulated locomotor activity vs saline-control,"[1]; acute, 1 and 3 mg/kg, R(+) experiment",not different from control
same,"locomotor activity, first 10 min","[1]; acute, S(-) nornicotine 3 mg/kg",121±14 photobeam interruptions
same,cross-sensitization to S(-) nicotine,[1],cross-sensitization to S(-) nicotine was observed
same,tolerance to acute stimulatory effect,[1]; repeated S(-) nornicotine 0.3 mg/kg,tolerance to the acute stimulatory effect
same,"locomotor activity, first 10 min",[1]; [5],101±12 photobeam interruptions
same,"locomotor activity, first 10 min after S(-) nicotine challenge",[1]; [5],134±21 photobeam interruptions
same,tolerance to depressant effect,[1]; [5],tolerance did not develop
same,tolerance to depressant effect,[1]; repeated S(-) nornicotine 10 mg/kg,also observed; also recorded: tolerance developed
same,time course after S(-) nicotine challenge,"[1]; repeated S(-) nornicotine 10 mg/kg, 10-min and 30-min time points",stimulated significantly
same,locomotor activity time course,"[1]; repeated S(-) nornicotine 10 mg/kg, 20-40 min",significantly greater than that of the saline-control group
same,locomotor activity vs saline-control,"[1]; repeated S(-) nornicotine 10 mg/kg, last administration",stimulated significantly above that of the saline-control group
same,locomotor activity time course,[1]; repeated S(-) nornicotine 0.3-3 mg/kg,not different from the saline-control group
same,time course after S(-) nicotine challenge,[1]; repeated S(-) nornicotine 0.3 and 1 mg/kg,not different from that of the saline-control group
same,cumulated locomotor activity after S(-) nicotine challenge,[1]; repeated S(-) nornicotine 0.3 and 1.0 mg/kg,no effect
same,locomotor activity vs saline-control,[1]; repeated S(-) nornicotine 1 and 3 mg/kg,not different from that of the saline-control group
same,cumulated locomotor activity after S(-) nicotine challenge,[1]; repeated S(-) nornicotine 3 and 10 mg/kg,significantly stimulated locomotor activity
same,cross-sensitization to S(-) nicotine,[1]; listed as norNIC,cross-sensitization was observed
same,total number of lever presses,[2]; 15 min,significant decreases in total number of lever presses
same,"plateau of dose-effect curve, amphetamine-appropriate responding",[2]; 45 min,50
same,total number of lever presses,[2]; 45 min,significant decrease in total number of lever presses
same,amphetamine-correct responding reached by individual rats,"[2]; any dose, none of the rats reached",< 80%
same,amphetamine-appropriate responding (partial substitution),"[2]; nicotine 0.1-1.0 mg/kg, nornicotine 1-10 mg/kg",approximately 50%
same,amphetamine-appropriate responding,"[2]; nornicotine 3 mg/kg, 15 min",Approximately 50%
same,amphetamine-appropriate responding (maximum),"[2]; nornicotine 10 mg/kg, 45 min",approximately 50%
same,"amphetamine-correct responses, individual rats","[2]; nornicotine 10 mg/kg, 45 min",33-61%
same,"relative potency, nicotine vs nornicotine",[2]; partial substitution for amphetamine,less potent than nicotine
same,behavioral profile in drug discrimination,"[2]; rat, in vivo",behavioral profile similar to nicotine
same,displacement of nicotine from nicotinic receptor sites,[3],cause displacement of nicotine
same,endogenous DA release,rat striatal slices,concentration-dependent and Ca+-dependent increase
same,endogenous DA release,rat striatal slices; listed as S(-) enantiomer of norNIC,concentration-dependent and Ca^++ -dependent increase
